Measurements: PubChem BioAssay (NCI)
Values joined by “and” are separate entries in the source; they are usually repeats but may differ in a detail not shown here. Equal values may be shown once.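 Results reflect a 48-hour exposure of cells in 96-well plates to compound at five concentrations. Here, GI50 denotes the concentration required for 50% inhibition of growth. TGI: concentration producing complete growth inhibition.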

Assays:
Assay in all cases: DTP human tumour cell line panel, 48 h
[1] = system: 786-0 renal
[2] = system: SF-268 CNS
[3] = system: LOX IMVI melanoma
[4] = system: A498 renal
[5] = system: UACC-257 melanoma
[6] = system: SK-MEL-28 melanoma
[7] = system: SF-539 CNS
[8] = system: PC-3 prostate
[9] = system: SNB-19 CNS
[10] = system: TK-10 renal

Row | Structure (SMILES) | TGI [1] [µM] | TGI [2] | TGI [3] | TGI [4] [µM] | TGI [5] | TGI [6] | TGI [7] | TGI [8] [µM] | TGI [9] | TGI [10] [µM] | GI50 [9] [µM] | GI50 [2] [µM] | GI50 [3] [µM] | GI50 [5] [µM] | GI50 [6] | GI50 [7] [µM] | GI50 [8] [µM] | GI50 [10] [µM] | GI50 [4] [µM]
1 | Cc1sc2nc3n(c(=O)c2c1C)N=C(c1ccc([N+](=O)[O-])cc1)CS3 | > 100 | > 100 µM | > 100 µM | > 100 | > 100 µM | > 100 µM | > 100 µM | > 100 | – | – | – | – | – | – | – | – | – | – | –
2 | C/C=C1\CC(C(=O)OCC)CCCCCCCCCCC1=O (centres undefined) | > 100 | > 100 µM | 80.8 µM | > 100 | > 100 µM | > 100 µM | > 100 µM | > 100 | > 100 µM | > 100 | – | – | – | – | – | – | – | – | –
3 | C[N+](C)([O-])CCCNc1ccnc2cccc([N+](=O)[O-])c12 | > 100 | 97.5 µM | > 100 µM | > 100 | > 100 µM | > 100 µM | 53.1 µM | > 100 | > 100 µM | > 100 | – | – | – | – | – | – | – | – | –
4 | Cc1nc2c(=O)[nH]c3ccc(Cl)cc3c2o1 | > 100 | > 100 µM | > 100 µM | > 100 | > 100 µM | – | > 100 µM | > 100 | > 100 µM | > 100 | – | – | – | – | – | – | – | – | –
5 | CC1CC[C@@]2(OC1)OC1C[C@H]3[C@@H]4CCC5CC(O)CC[C@]5(C)[C@H]4C/C(=N\N(C)C)[C@]3(C)C1[C@@H]2C (some centres undefined) | 49.8 | 99.4 µM | > 100 µM | 48.6 | > 100 µM | > 100 µM | 60.9 µM | 84.6 | 88.4 µM | 86.9 | – | – | – | – | – | – | – | – | –
6 | COc1ccc(N2C(=O)C3CC4=CC(=O)C[C@H]4[C@H]32)cc1 (some centres undefined) | > 100 | > 100 µM | > 100 µM | > 100 | > 100 µM | > 100 µM | – | > 100 | > 100 µM | > 100 | – | – | – | – | – | – | – | – | –
7 | COC(=O)[C@H](CCSC)NC(=O)c1ccc(CNC(=O)/C(C)=C/c2ccccc2)cc1 | 41.8 | 70.1 µM | > 100 µM | > 100 | 52.7 µM | 64.7 µM | 61.2 µM | > 100 | 58.2 µM | > 100 | – | – | – | – | – | – | – | – | –
8 | COc1ccc(C[C@@H]2OC3(C=CC(=O)C=C3)O[C@H]2Cc2ccc(OC)cc2)cc1 | 0.412 | 3.07 µM | 0.377 µM | 14.8 | 3.28 µM | 3.13 µM | 2.63 µM | 3.47 | 5.01 µM | 1.21 | – | – | – | – | – | – | – | – | –
9 | Cc1ccc2c(=O)c(-c3n[nH]c(=S)s3)c[nH]c2n1 | > 100 | > 100 µM | > 100 µM | > 100 | > 100 µM | > 100 µM | – | > 100 | > 100 µM | > 100 | – | – | – | – | – | – | – | – | –
10 | CC1(C)c2ccccc2C(O)C12CCC(=O)CC2 (centres undefined) | > 100 | > 100 µM | > 100 µM | > 100 | > 100 µM | > 100 µM | > 100 µM | > 100 | > 100 µM | > 100 | – | – | – | – | – | – | – | – | –
11 | C=CC(Br)(CBr)CCC(Br)C(C)C (centres undefined) | 2.93 | 25.7 µM | 3.1 µM | 32.8 | 24 µM | 16.8 µM | 6.02 µM | 19.5 | 23.4 µM | 10.4 | – | – | – | – | – | – | – | – | –
12 | CC1(C)C2CCC(N)(C2)C1O (centres undefined) | > 100 | – | > 100 µM | > 100 | > 100 µM | > 100 µM | – | > 100 | > 100 µM | > 100 | – | – | – | – | – | – | – | – | –
13 | CC(=O)C1(O)Cc2c(O)c3c(c(O)c2C(OC2CC(N)C(O)C(C)O2)C1)C(=O)c1ccccc1C3=O (centres undefined) | 0.0409 | 0.343 µM and 0.233 µM | 0.243 µM and 0.0335 µM | 0.0453 | 0.451 µM and 0.324 µM | 0.49 µM and 0.367 µM | 0.199 µM and 0.0511 µM | 0.741 | 0.97 µM and 0.156 µM | 0.158 | < 0.0122 | 0.0259 | 0.0214 | 0.0377 | 0.151 µM and 0.049 µM | 0.0116 | 0.0437 | – | –
14 | Brc1cccc[n+]1-c1ccc2cc(-[n+]3ccccc3Br)ccc2c1 | 69 | 90.4 µM | 34.7 µM | > 100 | > 100 µM | > 100 µM | 40.1 µM | > 100 | > 100 µM | 37.6 | – | – | – | – | – | – | – | – | –
15 | CN(C)CCn1nc(N)c2nc3cc(C(F)(F)F)ccc3nc21 | > 100 | > 100 µM | > 100 µM | > 100 | > 100 µM | > 100 µM | – | > 100 | > 100 µM | > 100 | – | – | – | – | – | – | – | – | –
16 | OC(CN1CCCCC1)c1ccc(/C=C/c2ccc(Cl)cc2)cc1 (centres undefined) | > 100 | > 100 µM | – | > 100 | 46.7 µM | 42.6 µM | > 100 µM | > 100 | > 100 µM | > 100 | – | – | – | – | – | – | – | – | –
17 | COc1ccc2[nH]c(O)c(/C=c3/cc4c(c(-c5ccc(F)cc5)n3)=Nc3ccccc3-4)c2c1 | – | 43.8 µM | 3.2 µM | 34.3 | 21 µM | 4.58 µM | 20.6 µM | > 100 | > 100 µM | 5.32 | 3.6 | 5.43 | 1.64 | 6.77 | 1.92 µM | 7.62 | 8.26 | 2.71 | 13.2
18 | CC(C)c1cccc(C(C)C)c1OS(=O)(=O)NC(=O)OC(C(F)(F)F)C(F)(F)F | – | > 100 µM | > 100 µM | > 100 | > 100 µM | > 100 µM | > 100 µM | > 100 | > 100 µM | > 100 | – | – | – | – | – | – | – | – | –
19 | CCCC1(N)CC(OC)OC(C)C1O (centres undefined) | > 100 | > 100 µM | > 100 µM | > 100 | > 100 µM | > 100 µM | > 100 µM | > 100 | > 100 µM | > 100 | – | – | – | – | – | – | – | – | –
20 | CC1=CC(=O)/C(=C/n2c(=S)[nH]c3ccccc32)C(=O)O1 | > 100 | > 100 µM | > 100 µM | > 100 | > 100 µM | – | > 100 µM | > 100 | > 100 µM | > 100 | – | – | – | – | – | – | – | – | –
